This is an account of results in patent US8609649B2, “Compositions and methods for the diagnosis, treatment, and prevention of amyotrophic lateral sclerosis and related neurological diseases” (Brandeis University, priority 2007, dated 2013).

In one series the test system is diabetic rats. The settings on record: cited from earlier work.
In series [1] the test system is humans with systolic hypertension and moderately severe diastolic heart failure. The settings on record: 16 weeks, 23 humans; cited from earlier work.
Series [2] relates to diabetic hyperlipidemic mice. As to conditions: cited from earlier work.
A further series relates to hypertensive subjects. The settings on record: 93 hypertensive subjects age greater than 50 years, compared with placebo; cited from earlier work.
The conditions of series [3]: cited from earlier work.
The next series deals with SOD-1 Cys111 (Homo sapiens, UniProt P00441). Nature of the series: Intersubunit crosslinking of SOD-1. Type of series: biochemical. As to conditions: FIG. 16.
Sequence of SOD-1 Cys111 (P00441 2-154 limits assumed): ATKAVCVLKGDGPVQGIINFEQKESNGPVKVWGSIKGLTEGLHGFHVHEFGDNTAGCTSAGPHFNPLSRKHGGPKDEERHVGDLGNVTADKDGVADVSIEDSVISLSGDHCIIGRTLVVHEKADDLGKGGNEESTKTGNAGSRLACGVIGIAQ
A further series relates to AGE formation. As to conditions: in vitro; cited from earlier work.
The conditions of series [4]: humans; cited from earlier work.
For another series, the system named is mice. The settings on record: cited from earlier work.
Series [5] concerns cultured motor neurons. Nature of the series: Viability of motor neurons microinjected with plasmid encoding SOD-1 variants. The settings on record: motor neurons expressing the SOD-1 variant, 10 days of observation, linear curve fit. The series is classed as cell-based, mouse. The source says: (§1) Dissociation of spinal cord-dorsal root ganglia from embryonic day 13 CD 1 mice (Charles River Laboratories, Wilmington, Mass.), plating on poly-D-lysine-coated coverslips, culture media, and identification of motor neurons were as previously described. Roy, J., Minotti, S., Dong, L., Figlewicz, D. A., and Durham, H. D. (1998) J. Neurosci. 18, 9673-9684. Cultures were used 3-6 weeks after plating.
(§2) Subcloning of SOD-1G93A and SOD-1 wt cDNAs into the BamHI/HindIII sites of pcDNA3 (Invitrogen) was performed previously using cDNAs provided by Dr. Denise Figlewicz (University of Michigan, Ann Arbor, Mich.). Wang, J., Xu, G., and Borchelt, D. R. (2002) Neurobiol. Dis. 9, 139-148. Trp 4 Phe (W32F) mutations were created by site-specific mutagenesis of SOD-1 G93A and SOD-1 wt (TOP Gene Technologies, Quebec, Canada), producing SOD-1 W32F/G93A and SOD-1 W32F mutants, respectively. Intranuclear microinjection of plasmids was used to express SOD-1 constructs in motor neurons and to assess their effects on the survival and formation of inclusions as previously described Durham, H. D., Roy, J., Dong, L., and Figlewicz, D. A. (1997) J. Neuropathol. Exp. Neurol. 56, 523-530.
For viability experiments, motor neurons containing the co-injected fluorescent marker were counted daily under epifluorescence microscopy beginning 24 h post-microinjection. The number of motor neurons was expressed as a percentage of those present at 24 h to exclude those dying from injury during microinjection. The morphology of each cell was also evaluated by phase microscopy. All experiments involved a minimum of six cultures per condition with 20-80 motor neurons (average of 40) analyzed per culture. All experimental groups were analyzed simultaneously using cultures from the same batch, but each set of conditions was assessed for reproducibility in more than one culture batch. For viability experiments, injectates were coded by an independent researcher, and cell counts for viability were carried out blind to the identity of the experimental condition. Rates of cell death were calculated by a linear curve fit of the data (see FIG. 11) and are expressed as the percentage of death/day. The lowest observed linear regression r2 value was 0.94, and the average value was 0.96.
For the survival assays, statistical significance was determined using analysis of variance between groups (SigmaStat, Systat Software, Inc., Point Richmond, Calif.). Significance was established at p less than or equal to 0.05. Data for percentage of motor neurons with inclusions were tested for normal distribution and then compared using a one-tailed, two-sample t test for equal means under the assumption of unequal variance. A null hypothesis of equal means was rejected when p is less than or equal to 0.05.

For another series, the system named is proteasome. Nature of the series: Proteasome activity in SOD-1-expressing stably transfected NIH/3T3 cell lines. Type of series: cell-based. The settings on record: NIH/3T3 cell lines expressing the SOD-1 variant. The source says: Therefore, one aspect of the invention relates to monitoring proteasome activity to screen for potential ALS therapeutic compounds. FIG. 2 illustrates the results of using SOD-1 expressing cells (eG93A SOD-1 expressing clones; wild-type SOD-1 expressing clones; and […] G93A SOD-1 expressing clones) for said purpose. In certain embodiments, the assay involves administration of different concentrations of a given compound to G93A- and wild-type SOD-1 cell lines, and assaying proteasome activity. Successful compounds, in analogy to […]/G93A double mutant (FIG. 2), will relieve G93A SOD-1 associated proteasome inhibition. […] With successful hits, SOD-1 protein can be immunopurified from cell cultures to determine if there is any direct chemical bonding to SOD-1. pcDNA-3 vector with wild-type SOD-1, G93A SOD-1, […] SOD-1, […] G93A SOD-1 cDNA sequence were prepared by standard site-directed mutagenesis techniques. NIH/3T3 cells were maintained in Dulbecco's modified Eagle's medium (ATCC, Mannassas, Va.) supplemented with 10% newborn calf serum (Invitrogen, Carlsbad, Calif.). Cells were transfected with the plasmids using Lipofectamine 2000 (Invitrogen, Carlsbad, Calif.). A mock transfection was performed and cells were transfected under the same conditions but using either empty pcDNA-3 expression vector or no vector (to test the efficiency of selection). […]

Series [6] relates to cultured motor neurons. Nature of the series: SOD-1-positive cytoplasmic inclusions in microinjected motor neurons. Type of series: cell-based, mouse.
From the text: as §1
as §2, with “523-530. […]” for “523-530.”
For the survival assays, statistical significance was determined using analysis of variance between groups (SigmaStat, Systat Software, Inc., Point Richmond, Calif.). […]

Where [7] appears, read: 12 weeks therapy, diabetic hypertensive rats.

For `Cc1sc[n+](CC(=O)c2ccccc2)c1C.[Cl-]` [ALT-711, alagebrium chloride], in the series with diabetic rats (diabetic rats), the “levels of AGEs, RAGE expression, diabetic nephropathy, myocardial stiffness” value was “decrease”. Moreover, the “left ventricular mass, left ventricular filling, patient ratings of quality of life” value in [1] is “decreased left ventricular mass, improved left ventricular filling, and improved patient ratings of quality of life”. Besides, the “atherosclerosis, cholesterol and systolic blood pressure” value in series [2] is “attenuated atherosclerosis and decreased cholesterol and systolic blood pressure”. In the series with hypertensive subjects, the “pulse pressure and arterial stiffness” value was “significant reduction”.

As to `CC(=O)NCCNC(=N)NN.Cl` [ALT-946, N-(2-acetamidoethyl)hydrazinecarboximidamide hydrochloride], in the series on diabetic rats (setting [7]), the “decrease of albuminuria compared with aminoguanidine therapy” value was 250% and the “renal AGEs by histologic analysis” value is on record as “reduce renal AGEs”. The albuminuria entry with diabetic rats (rat model, used at the onset of diabetes and initiated after 16 weeks of diabetes) is given as “reduced albuminuria”.

`N=C(N)NN` [Aminoguanidine]: the “nephropathy, retinopathy, and vessel elasticity” value with diabetic rats (diabetic rats) is “improve”. Besides, the incidence of glomerulonephritis entry in series [3] (higher dose) was “increased incidence”. The proteinuria entry in [3] (lower dose, P<0.001) is on record as “equally effective”. The retinopathy progression result in series [3] (lower dose, P=0.03) is listed as “preventing retinopathy progression”. Besides, the serious side effects entry in series [3] (lower dose) is recorded as “free of serious side effects”.

In the case of `O=C1C=CC(=O)N1CCSSCCN1C(=O)C=CC1=O` [DTME], the “intersubunit crosslinking of SOD-1 Cys111” value at SOD-1 Cys111 is given as “intersubunit crosslinking”.

In the case of `C=CS(=O)(=O)CCCCCCS(=O)(=O)C=C` [HBVS], the “intersubunit crosslinking of SOD-1 Cys111” value on SOD-1 Cys111 was “intersubunit crosslinking”.

Consider `CN(C)C(=N)N=C(N)N` [Metformin], for which the AGE formation entry in the series on AGE formation is “prevent AGE formation”.

On to `O=C(C[n+]1ccsc1)c1ccccc1.[Br-]` [N-phenacylthiazolium bromide], for which, in the series with diabetic rats (diabetic rat models), the AGEs entry is on record as “decrease AGEs” and the “nephropathy as measured by proteinuria” value is “has not decreased nephropathy”.

Turning to `Cc1ncc(CO)c(CN)c1O` [Pyridoxamine], in the series on diabetic rats (compared with aminoguanidine), the cholesterol levels result is listed as “lowered cholesterol levels more than aminoguanidine” and the diabetic nephropathy result is “inhibited diabetic nephropathy equally to aminoguanidine”. In the series on diabetic rats (nondiabetic and diabetic rats), the AGE formation entry is “retarded AGE formation” and the weight result was “mild weight loss”.

As to `CCCCC1=NC2(CCCC2)C(=O)N1Cc1ccc(-c2ccccc2-c2nnn[nH]2)cc1` [irbesartan], the vascular inflammation entry in series [4] is “decreased vascular inflammation”. Moreover, the AGE formation entry in the series on AGE formation is given as “effective in vitro at decreasing AGE formation”.

For `CCCCc1nc(Cl)c(CO)n1Cc1ccc(-c2ccccc2-c2nn[nH]n2)cc1` [losartan], the AGE formation result with AGE formation is on record as “effective in vitro at decreasing AGE formation”.

On to `CCC[C@H](N[C@@H](C)C(=O)N1[C@H](C(=O)O)C[C@@H]2CCCC[C@@H]21)C(=O)OCC` [perindopril], for which the RAGE levels result in series [4] is on record as “decreased RAGE levels”. In the series on mice, the atherosclerosis result is recorded as “inhibited atherosclerosis”.

Take `CCCc1nc2c(C)cc(-c3nc4ccccc4n3C)cc2n1Cc1ccc(-c2ccccc2C(=O)O)cc1` [telmisartan]: the AGE formation result in the series on AGE formation is “effective in vitro at decreasing AGE formation”.

`O=C(O)CN1C[C@@H](c2cccs2)SC[C@H](N[C@@H](CCc2ccccc2)C(=O)O)C1=O` [temocaprilat]: the AGE formation result in the series with AGE formation was “effective in vitro at decreasing AGE formation”.

In the case of `CCCCC(=O)N(Cc1ccc(-c2ccccc2-c2nnn[nH]2)cc1)[C@H](C(=O)O)C(C)C` [valsartan], in the series with AGE formation, the AGE formation entry is recorded as “effective in vitro at decreasing AGE formation”.

For the compound “SOD-1^G93A: disease-causing mutant copper/zinc superoxide dismutase with the G93A mutation”, in the series with cultured motor neurons [5], the “rate of death of motor neurons” value was found to be 6.8 %/day. In addition, the proteasome activity entry with proteasome was “near complete inhibition”.

“SOD-1^W32F/G93A: SOD-1 with the double mutation W32F and G93A”: the “percentage of motor neurons with SOD-1 inclusions” value is listed as “No significant difference” with cultured motor neurons [6] (days 5 and 7, versus SOD-1G93A); “significantly lower proportion” with cultured motor neurons [6] (post-microinjection day 3, versus SOD-1G93A, p<0.005). The “rate of death of motor neurons” value in the series with cultured motor neurons [5] is 3.6 %/day.

With “SOD-1^W32F: SOD-1wt with Trp-32 replaced with Phe”, the “rate of death of motor neurons” value in the series on cultured motor neurons [5] was 4.3 %/day.

As for “SOD-1^wt: wild-type human copper/zinc superoxide dismutase”, in the series on cultured motor neurons [5], the “rate of death of motor neurons” value came out at 3.0 %/day.
